Columns and labels:
Assay in all cases: combination Emax (second highest fraction inhibited in the dose matrix, 72 h); higher = more inhibition; extreme values may be limits of the assay
[1] = test system: 639-V (Bladder Carcinoma)
Summary of the method: (§1)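 Cell lines grown in DMEM/F12 or RPMI with 10% FBS were plated in 1536-well plates and held 24 hours at 37°C, 5% CO2 before 72 hours of exposure to two-drug dose matrices, with DMSO typically at 0.2%. CellTiter-Glo 2.0 luminescence gave viability, which was converted to inhibition. Vehicle wells were set to 0 and blank wells to 1. Combination Emax is the second-highest inhibition in the matrix, and Bliss excess is the observed combination effect minus the expected EA + EB − EA·EB, where EA and EB are the single-agent effects.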

NB14 (Neuroblastoma) = test system: NB14 (Neuroblastoma)
Summary of the method: as §1

NCI-H2795 (Mesothelioma) = test system: NCI-H2795 (Mesothelioma)
Summary of the method: as §1

[2] = test system: 8305C (Thyroid Gland Carcinoma)
Summary of the method: as §1

[3] = test system: SW1271 (Small Cell Lung Carcinoma)
Summary of the method: as §1

[4] = test system: MDA-MB-468 (Breast Carcinoma)
Summary of the method: as §1

[5] = test system: SW626 (Colorectal Carcinoma)
Summary of the method: as §1

[6] = test system: HARA (Squamous Cell Lung Carcinoma)
Summary of the method: as §1

NCI-H28 (Mesothelioma) = test system: NCI-H28 (Mesothelioma)
Summary of the method: as §1

[7] = test system: SW1116 (Colorectal Carcinoma)
Summary of the method: as §1

[8] = test system: MHH-PREB-1 (B-Cell Non-Hodgkin's Lymphoma)
Summary of the method: as §1

[9] = test system: HO-1-u-1 (Oral Cavity Carcinoma)
Summary of the method: as §1

[10] = test system: PCI-30 (Head and Neck Carcinoma)
Summary of the method: as §1

[11] = test system: OVCAR-8 (Ovarian Carcinoma)
Summary of the method: as §1

[12] = test system: KYSE-410 (Esophageal Squamous Cell Carcinoma)
Summary of the method: as §1

[13] = test system: CAL-54 (Kidney Carcinoma)
Summary of the method: as §1

[14] = test system: LB771-HNC (Head and Neck Carcinoma)
Summary of the method: as §1

[15] = test system: K5 (Thyroid Gland Carcinoma)
Summary of the method: as §1

[16] = test system: LU-139 (Small Cell Lung Carcinoma)
Summary of the method: as §1

Row | SMILES | combination Emax [1] | combination Emax (NB14 (Neuroblastoma)) | combination Emax (NCI-H2795 (Mesothelioma)) | combination Emax [2] | combination Emax [3] | combination Emax [4] | combination Emax [5] | combination Emax [6] | combination Emax (NCI-H28 (Mesothelioma)) | combination Emax [7] | combination Emax [8] | combination Emax [9] | combination Emax [10] | combination Emax [11] | combination Emax [12] | combination Emax [13] | combination Emax [14] | combination Emax [15] | combination Emax [16]
1 | C=CCn1c(=O)c2cnc(Nc3ccc(N4CCN(C)CC4)cc3)nc2n1-c1cccc(C(C)(C)O)n1 [AZD1775] + C1CN(CCC1(C(=O)N[C@@H](CCO)C2=CC=C(C=C2)Cl)N)C3=NC=NC4=C3C=CN4 [Capivasertib] (first compound max 3 µM, partner max 3 µM) | 0.642 | 0.98 | 0.408 | 0.681 | 0.682 | 0.741 | 0.583 | 0.929 | 0.56 | 0.48 | 0.812 | 0.913 | 0.477 | 0.812 | 0.663 | 0.782 | 0.696 | 0.603 | 0.733
2 | CC(=O)c1c(C)c2cnc(Nc3ccc(N4CCNCC4)cn3)nc2n(C2CCCC2)c1=O [Palbociclib] + Cn1cnc2c(F)c(Nc3ccc(Br)cc3Cl)c(C(=O)NOCCO)cc21 [Selumetinib] (first compound max 10 µM, 7x7, partner max 10 µM) | 0.259 | 0.705 | 0.89 | 0.469 | 0.428 | 0.441 | 0.531 | 0.499 | 0.379 | 0.396 | 0.445 | 0.465 | 0.223 | 0.146 | 0.261 | 0.616 | 0.194 | 0.627 | 0.282
3 | NC1(C(=O)N[C@@H](CCO)c2ccc(Cl)cc2)CCN(c2ncnc3[nH]ccc23)CC1 [Capivasertib] + CCN(CCO)CCCOc1ccc2c(Nc3cc(CC(=O)Nc4cccc(F)c4)[nH]n3)ncnc2c1 [AZD2811] (first compound max 10 µM, 7x7, partner max 1 µM) | 0.387 | 0.938 | 0.413 | 0.452 | 0.315 | 0.561 | 0.292 | 0.679 | 0.416 | 0.197 | 0.257 | 0.848 | 0.28 | 0.393 | 0.303 | 0.545 | 0.489 | 0.554 | 0.293
4 | CS(=O)(=O)CCNCc1ccc(-c2ccc3ncnc(Nc4ccc(OCc5cccc(F)c5)c(Cl)c4)c3c2)o1 [Lapatinib] + C[C@@H](Oc1cc(-c2cnn(C3CCNCC3)c2)cnc1N)c1c(Cl)ccc(F)c1Cl [Crizotinib] (first compound max 10 µM, 7x7, partner max 10 µM) | 0.853 | 0.979 | 0.949 | 0.94 | 0.529 | 0.959 | 0.626 | 0.95 | 0.622 | 0.688 | 0.96 | 0.961 | 0.366 | 0.79 | 0.934 | 0.916 | 0.854 | 0.984 | 0.936
5 | NC1(C(=O)N[C@@H](CCO)c2ccc(Cl)cc2)CCN(c2ncnc3[nH]ccc23)CC1 [Capivasertib] + CC(=O)c1c(C)c2cnc(Nc3ccc(N4CCNCC4)cn3)nc2n(C2CCCC2)c1=O [Palbociclib] (first compound max 10 µM, 7x7, partner max 10 µM) | 0.299 | 0.598 | 0.489 | 0.469 | 0.349 | 0.508 | 0.348 | 0.689 | 0.425 | 0.136 | 0.502 | 0.806 | 0.291 | 0.221 | 0.549 | 0.658 | 0.403 | 0.653 | 0.0872
6 | CC(=O)c1c(C)c2cnc(Nc3ccc(N4CCNCC4)cn3)nc2n(C2CCCC2)c1=O [Palbociclib] + CC1(C)CCC(CN2CCN(c3ccc(C(=O)NS(=O)(=O)c4ccc(NCC5CCOCC5)c([N+](=O)[O-])c4)c(Oc4cnc5[nH]ccc5c4)c3)CC2)=C(c2ccc(Cl)cc2)C1 [Venetoclax] (first compound max 10 µM, 7x7, partner max 1 µM) | 0.147 | 0.734 | 0.351 | 0.431 | 0.214 | 0.261 | 0.153 | 0.496 | 0.389 | 0.04 | 0.412 | 0.271 | 0.223 | 0.19 | 0.136 | 0.527 | 0.149 | 0.452 | 0.37
7 | NC1(C(=O)N[C@@H](CCO)c2ccc(Cl)cc2)CCN(c2ncnc3[nH]ccc23)CC1 [Capivasertib] + CC(C)n1c(=O)n(C)c2cnc3cc(F)c(-c4ccc(OCCCN5CCCCC5)nc4)cc3c21 [AZD1390] (first compound max 10 µM, 7x7, partner max 0.3 µM) | 0.252 | 0.381 | 0.394 | 0.436 | 0.371 | 0.518 | 0.273 | 0.514 | 0.281 | 0.215 | 0.21 | 0.746 | 0.298 | 0.255 | 0.327 | 0.466 | 0.395 | 0.405 | 0.0539
8 | NC1(C(=O)N[C@@H](CCO)c2ccc(Cl)cc2)CCN(c2ncnc3[nH]ccc23)CC1 [Capivasertib] + C[C@@H]1COCCN1C2=NC(=NC(=C2)C3(CC3)[S@](=N)(=O)C)C4=C5C=CNC5=NC=C4 [AZD6738] (first compound max 10 µM, 7x7, partner max 10 µM) | 0.496 | 0.964 | 0.737 | 0.683 | 0.512 | 0.726 | 0.68 | 0.868 | 0.512 | 0.227 | 0.749 | 0.887 | 0.482 | 0.776 | 0.397 | 0.813 | 0.674 | 0.687 | 0.25
9 | Cc1nc(Nc2ncc(C(=O)Nc3c(C)cccc3Cl)s2)cc(N2CCN(CCO)CC2)n1 [Dasatinib] + CC(=O)Nc1cccc(-n2c(=O)n(C3CC3)c(=O)c3c(Nc4ccc(I)cc4F)n(C)c(=O)c(C)c32)c1 [Trametinib] (first compound max 2 µM, 7x7, partner max 1 µM) | 0.466 | 0.465 | 0.972 | 0.763 | 0.928 | 0.621 | 0.849 | 0.531 | 0.721 | 0.757 | 0.0875 | 0.713 | 0.643 | 0.671 | 0.546 | 0.958 | 0.202 | 0.929 | 0.0497
10 | COc1nnc2ccc(N3CCC(c4ccc(OCCN5CCN(C)C(=O)[C@H]5C)cc4)CC3)nn12 [AZD5153] + C[C@@H]1COCCN1C2=NC(=NC(=C2)C3(CC3)[S@](=N)(=O)C)C4=C5C=CNC5=NC=C4 [AZD6738] (first compound max 1 µM, 7x7, partner max 10 µM) | 0.813 | 0.97 | 0.801 | 0.674 | 0.57 |  | 0.798 | 0.832 | 0.659 | 0.432 | 0.893 | 0.89 | 0.404 | 0.924 | 0.484 | 0.823 | 0.739 | 0.788 | 0.947
11 | Cn1cnc2c(F)c(Nc3ccc(Br)cc3Cl)c(C(=O)NOCCO)cc21 [Selumetinib] + CC(C)n1c(=O)n(C)c2cnc3cc(F)c(-c4ccc(OCCCN5CCCCC5)nc4)cc3c21 [AZD1390] (first compound max 10 µM, 7x7, partner max 0.3 µM) | 0.238 | 0.241 | 0.846 | 0.379 | 0.499 |  | 0.562 | 0.184 | 0.262 | 0.502 | 0.108 | 0.188 | 0.203 | 0.132 | 0.163 | 0.346 | 0.136 | 0.51 | 0.0318
12 | CN(C)CCCOc1ccc(-c2ccc3ncc4c(c3c2)n(C2CCOCC2)c(=O)n4C)cn1 [AZD0156] + O=C(c1cc(Cc2n[nH]c(=O)c3ccccc23)ccc1F)N1CCN(C(=O)C2CC2)CC1 [Olaparib] (first compound max 3 µM, partner max 3 µM) | 0.443 | 0.611 | 0.384 | 0.441 | 0.351 | 0.392 | 0.164 | 0.411 | 0.323 | 0.206 | 0.378 | 0.408 | 0.234 | 0.316 | 0.172 | 0.369 | 0.223 | 0.314 | 0.264
13 | COc1nnc2ccc(N3CCC(c4ccc(OCCN5CCN(C)C(=O)[C@H]5C)cc4)CC3)nn12 [AZD5153] + CC1(C)CCC(CN2CCN(c3ccc(C(=O)NS(=O)(=O)c4ccc(NCC5CCOCC5)c([N+](=O)[O-])c4)c(Oc4cnc5[nH]ccc5c4)c3)CC2)=C(c2ccc(Cl)cc2)C1 [Venetoclax] (first compound max 1 µM, 7x7, partner max 1 µM) | 0.582 | 0.761 | 0.465 | 0.524 | 0.57 |  | 0.689 | 0.654 | 0.487 | 0.353 | 0.481 | 0.55 | 0.344 | 0.661 | 0.266 | 0.769 | 0.481 | 0.668 | 0.948

Source: the supplement of paper PMC11061612
